For data set [1], the target named is T1, Adenosine receptor A1 (Cavia porcellus, UniProt P47745).
T1 sequence (P47745 whole entry): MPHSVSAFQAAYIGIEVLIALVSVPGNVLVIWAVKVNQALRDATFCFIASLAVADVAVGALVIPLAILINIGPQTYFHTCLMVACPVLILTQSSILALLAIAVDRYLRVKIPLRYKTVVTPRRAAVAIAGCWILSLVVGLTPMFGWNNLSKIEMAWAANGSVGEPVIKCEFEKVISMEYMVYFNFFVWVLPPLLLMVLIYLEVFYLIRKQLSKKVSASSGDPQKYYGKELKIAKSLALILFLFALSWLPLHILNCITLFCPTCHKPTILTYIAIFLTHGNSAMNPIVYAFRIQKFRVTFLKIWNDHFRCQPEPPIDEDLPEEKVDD
The experiment in a line: Binding affinity carried out with [3H]cyclohexyladenosine in guinea pig forebrain membranes against adenosine A1 receptor. The class given is cell membranes, Brain membranes.

In data set [2] the target is T2, Adenosine A2 receptor (Rattus norvegicus, UniProt P29276+P30543). The class given is cell membranes, Membrane.
The species named for data set [3] is Cavia porcellus. The experiment in a line: Ki ratio evaluated as the Ki of A2 to that A1 receptor values.
The target of data set [4] is T2, Adenosine A2 receptor. Type of data set: cell membranes, Membrane. This is another data set of the same source.
Data set [5] is filed under the species Rattus norvegicus. As to conditions: in vivo, po, 6 h.
Description: Compound administered at a dose of 6.25 mg/25 mL/kg orally to rats, urine collected for 6 hr and measured for K+ excretion.
The species entered for data set [6] is Rattus norvegicus. Particulars: in vivo, po, 6 h. The source holds these as a separate data set.
Description: Compound administered at a dose of 6.25 mg/25 mL/kg orally to rats, urine collected for 6 hr and measured for urine volume.
Data set [7] deals with Rattus norvegicus. The experiment in a line: Compound was evaluated for Serum creatinine concentration in glycerol injected rats treated with 1 mg/kg administered intraperitoneally. Type of data set: functional, organism-based. Further details: dose 1 mg/kg.
Data set [8] is filed under the species Rattus norvegicus. As to conditions: in vivo, po, 6 h. The source holds these as a separate data set.
Description: Compound administered at a dose of 6.25 mg/25 mL/kg orally to rats, urine collected for 6 hr and measured for Na+ excretion.
The target of data set [9] is T1, Adenosine receptor A1.
Description: Inhibition of [3H]cyclohexyladenosine binding to guinea pig forebrain membranes Adenosine A1 receptor
The subject of data set [10] is Rattus norvegicus. The experiment in a line: Compound was evaluated for Serum creatinine concentration in glycerol injected rats treated with 10 mg/kg administered intraperitoneally. Further details: dose 10 mg/kg. The class given is functional, organism-based.

Structures are written as SMILES.

Take `CCCn1c(=O)c2nc(C(c3ccc(OC)cc3)C3CC3)[nH]c2n(CCC)c1=O` (centres undefined): the inhibitory constant (Ki) (in general, a dissociation constant, usually derived from enzyme kinetics or from competition with a known ligand) in [1] is 0.25 µM; in data set [2], 2.2 µM. Further, the Ki ratio in [3] is 8.8.

Turning to `CCn1c(=O)c2nc(C(C3CC3)C3CC3)[nH]c2n(CC)c1=O`, the Ki ratio in [3] amounted to 53.

In turn, `CCCn1c(=O)c2nc(C(c3ccccc3)c3ccccc3)[nH]c2n(CCC)c1=O` yielded an inhibition constant (Ki) in data set [2] greater than 100 µM. Also, the Ki ratio in [3] is greater than 48.

In data set [1], `CCCn1c(=O)c2c(nc(C(C3CC3)C3CC3)n2CCC)n(CCC)c1=O` had a Ki of 13 µM. Further, the Ki ratio in [3] stood at 0.48.

Regarding `CCCn1c(=O)c2nc(C(C3CCCCC3)C3CCCCC3)[nH]c2n(CCC)c1=O`, the Ki in [1] and in data set [4] was greater than 100 µM in each case.

Regarding `CCCn1c(=O)c2nc(C(C)CC)[nH]c2n(CCC)c1=O` (centres undefined), the Ki ratio in data set [3] stood at 48. The Ki in data set [4] came out at 1.2 µM.

`CCCn1c(=O)c2[nH]c(C3CCCC3)nc2n(CCC)c1=O` [1,3-DIPROPYL-8-CYCLOPENTYLXANTHINE [DPCPX]]: the “K+ excretion” value in data set [5] is listed as 1.26 ml 6hr-1 100g-1. For the same compound, the Urine volume in data set [6] is reported as 1.87 ml 6hr-1 100g-1. The same compound displayed a Serum creatinine conc in data set [7] of 3.75 mg/dL. The “Na+ excretion” value in data set [8] came to 1.98 ml 6hr-1 100g-1.

`CCCn1c(=O)c2nc(C(C3CC3)C3CC3)[nH]c2n(CCC)c1=O`: in data set [7], the Serum creatinine conc amounted to 2.99 mg/dL. Moreover, in [3], the Ki ratio came to 140.

As to `CCCn1c(=O)c2nc(C(C)Cc3ccc(OC)cc3)[nH]c2n(CCC)c1=O` (centres undefined), in data set [3], the Ki ratio is 2.6. The same compound displayed an inhibition constant (Ki) in data set [4] of 0.58 µM.

In turn, `CCn1c(=O)c2[nH]c(C(C3CC3)C3CC3)nc2n(CC)c1=O` returned a Ki in data set [1] of 0.013 µM.

As to `CCCn1c(=O)c2nc(C(CC)c3ccccc3)[nH]c2n(CCC)c1=O` (centres undefined), the Ki in data set [1] came to 0.1 µM; in data set [4], 1.1 µM. Besides, in [3], the Ki ratio came to 11.

Take `CCCn1c(=O)c2nc(C(c3ccccc3)C3CCCC3)[nH]c2n(CCC)c1=O` (centres undefined): the Ki ratio in [3] stood at 10. The compound also yielded a Ki in [4] of 4 µM.

Consider `CCCn1c(=O)c2c(nc(C(C3CC3)C3CC3)n2C)n(CCC)c1=O`, for which the Ki in [1] was 7.4 µM. Also, in data set [3], the Ki ratio was 3.9.

On to `CCCn1c(=O)c2[nH]c(C(C3CC3C)C3CC3C)nc2n(CCC)c1=O` (centres undefined), for which the Ki in [1] turned out to be 0.0097 µM.

The compound `CCCn1c(=O)c2[nH]c(C(C)Cc3ccc(OC)cc3)nc2n(CCC)c1=O` (centres undefined) yielded a Ki in [1] of 0.22 µM. Against the preceding compound, the Ki is about 23-fold higher.

For the compound `CCCn1c(=O)c2nc[nH]c2n(CCC)c1=O`, the inhibition constant (Ki) in [9] is 1.2 µM.

For `CCCn1c(=O)c2nc(C(CC)Oc3ccccc3)[nH]c2n(CCC)c1=O` (centres undefined), the figures for the inhibition constant (Ki) in [1] and in data set [4] were 0.9 µM and 3.3 µM, respectively. In addition, the Ki ratio in [3] came out at 3.7.

With `CCCn1c(=O)c2nc(C(C3CC3C)C3CC3C)[nH]c2n(CCC)c1=O` (centres undefined), in data set [3], the Ki ratio is 100. Further, the Ki in data set [4] was found to be 1 µM.

Compound `CCCn1c(=O)c2c(nc(C(C3CC3)C3CC3)n2CC)n(CCC)c1=O` registered a Ki in [1] of 1.6 µM. Further, in [3], the Ki ratio was found to be 8.8.

In [1], `CCCn1c(=O)c2[nH]c(C(C)Cc3ccccc3)nc2n(CCC)c1=O` (centres undefined) came in with an inhibition constant (Ki) of 0.26 µM.

For `CCCn1c(=O)c2nc(C(CC)CC)[nH]c2n(CCC)c1=O`, the Ki ratio in data set [3] was found to be 30. This compound also gave an inhibitory constant (Ki) in data set [4] of 0.57 µM.

As for `CCCn1c(=O)c2nc(C(c3ccccc3)C3CC3)[nH]c2n(CCC)c1=O` (centres undefined), the Ki stood at 0.15 µM in data set [1] and 1.8 µM in [4]. Also, in [3], the Ki ratio stood at 12.

Regarding `CCCn1c(=O)c2[nH]c(C(c3ccccc3)c3ccccc3)nc2n(CCC)c1=O`, in [1], the inhibitory constant (Ki) came to 2.1 µM.

`CC(C)Cn1c(=O)n(C)c(=O)c2[nH]c(C(C3CC3)C3CC3)nc21` came in with an inhibitory constant (Ki) in [1] of 0.012 µM. The Ki ratio in [3] turned out to be 34.

For the compound `CCCCn1c(=O)c2nc(C(C3CC3)C3CC3)[nH]c2n(CCCC)c1=O`, in [1], the Ki is 0.0055 µM. Also, the Ki ratio in [3] was 80.

On to `CCCn1c(=O)c2nc(C(c3ccc(F)cc3)C3CC3)[nH]c2n(CCC)c1=O` (centres undefined), for which the Ki ratio in [3] was 5.6. In data set [4], the Ki was determined as 1.4 µM.

As to `CCCn1c(=O)c2nc(C(C)Cc3ccccc3)[nH]c2n(CCC)c1=O` (centres undefined), the Ki ratio in data set [3] worked out at 1.8. The compound also showed a Ki in [4] of 0.48 µM.

For `CCCn1c(=O)c2nc(C(C)N)[nH]c2n(CCC)c1=O` (centres undefined), the results for the Ki in data set [1] and in data set [4] were 3 µM and greater than 100 µM, respectively. For the same compound, the Ki ratio in [3] is greater than 33.

In [10], `NS(=O)(=O)c1cc(C(=O)O)c(NCc2ccco2)cc1Cl` showed a Serum creatinine conc of 4.17 mg/dL.

With `CCCC(CCC)c1nc2c(=O)n(CCC)c(=O)n(CCC)c2[nH]1`, the Ki ratio in data set [3] was found to be 7.6. Also, the Ki in data set [4] amounted to 0.59 µM.

In data set [1], `CCCn1c(=O)c2[nH]c(C(c3ccc(F)cc3)C3CC3)nc2n(CCC)c1=O` (centres undefined) returned an inhibition constant Ki of 0.25 µM.

Turning to `Cn1c(=O)c2nc(C(C3CC3)C3CC3)[nH]c2n(C)c1=O`, the inhibition constant (Ki) in [1] is 0.081 µM. The Ki ratio in [3] came out at 33.

Consider `CCCn1c(=O)c2nc(C(C)C)[nH]c2n(CCC)c1=O`, for which the figures for the Ki in data set [1] and in data set [4] were 0.049 µM and 1.5 µM, respectively. Besides, the Ki ratio in data set [3] stood at 31.

As for `CCCn1c(=O)c2[nH]c(C(c3ccccc3)C3CCCC3)nc2n(CCC)c1=O` (centres undefined), in data set [1], affinity was put at a Ki of 0.4 µM.

On to `CCCn1c(=O)[nH]c(=O)c2[nH]c(C(C3CC3)C3CC3)nc21`, for which the Ki in data set [1] was 1.3 µM; in [4] it was greater than 100 µM. Besides, in [3], the Ki ratio is greater than 77.

With `Cn1c(=O)c2[nH]cnc2n(C)c1=O.O` [THEOPHYLLINE], in data set [5], the “K+ excretion” value was found to be 1.16 ml 6hr-1 100g-1. The compound further came in with a Urine volume in data set [6] of 1.42 ml 6hr-1 100g-1. Besides, the Serum creatinine conc in data set [10] was determined as 5.32 mg/dL. Besides, the “Na+ excretion” value in data set [8] was 1.52 ml 6hr-1 100g-1.

As to `CCCC(CCC)c1nc2c([nH]1)c(=O)n(CCC)c(=O)n2CCC`, affinity in data set [1] was put at a Ki of 0.078 µM.

With `CCCn1c(=O)c2[nH]c(C(C)CC)nc2n(CCC)c1=O` (centres undefined), the inhibition constant Ki in data set [1] was 0.025 µM.

As for `Cn1c(=O)c2c(ncn2C)n(C)c1=O` [CAFFEINE], the results for the “K+ excretion” value in data set [5] and in [8] were 0.99 ml 6hr-1 100g-1 and 1.1 ml 6hr-1 100g-1, respectively. The Urine volume in [6] was determined as 0.92 ml 6hr-1 100g-1. Also, the inhibition constant Ki in data set [9] is greater than 100 µM.
